The record followed here is patent US20240327382A1 (ALMAC DISCOVERY LIMITED, priority 2021, published 2024).

pIC50: −log10 of the molar value. Bounds are passed on as bounds.

The target in the assay is T1, Full-length USP19 (Homo sapiens, UniProt O94966).
T1 construct: Full-length USP19 was purchased from Boston Biochem (E-576); purchased Boston Biochem E-576
T1 sequence (O94966 1-1318): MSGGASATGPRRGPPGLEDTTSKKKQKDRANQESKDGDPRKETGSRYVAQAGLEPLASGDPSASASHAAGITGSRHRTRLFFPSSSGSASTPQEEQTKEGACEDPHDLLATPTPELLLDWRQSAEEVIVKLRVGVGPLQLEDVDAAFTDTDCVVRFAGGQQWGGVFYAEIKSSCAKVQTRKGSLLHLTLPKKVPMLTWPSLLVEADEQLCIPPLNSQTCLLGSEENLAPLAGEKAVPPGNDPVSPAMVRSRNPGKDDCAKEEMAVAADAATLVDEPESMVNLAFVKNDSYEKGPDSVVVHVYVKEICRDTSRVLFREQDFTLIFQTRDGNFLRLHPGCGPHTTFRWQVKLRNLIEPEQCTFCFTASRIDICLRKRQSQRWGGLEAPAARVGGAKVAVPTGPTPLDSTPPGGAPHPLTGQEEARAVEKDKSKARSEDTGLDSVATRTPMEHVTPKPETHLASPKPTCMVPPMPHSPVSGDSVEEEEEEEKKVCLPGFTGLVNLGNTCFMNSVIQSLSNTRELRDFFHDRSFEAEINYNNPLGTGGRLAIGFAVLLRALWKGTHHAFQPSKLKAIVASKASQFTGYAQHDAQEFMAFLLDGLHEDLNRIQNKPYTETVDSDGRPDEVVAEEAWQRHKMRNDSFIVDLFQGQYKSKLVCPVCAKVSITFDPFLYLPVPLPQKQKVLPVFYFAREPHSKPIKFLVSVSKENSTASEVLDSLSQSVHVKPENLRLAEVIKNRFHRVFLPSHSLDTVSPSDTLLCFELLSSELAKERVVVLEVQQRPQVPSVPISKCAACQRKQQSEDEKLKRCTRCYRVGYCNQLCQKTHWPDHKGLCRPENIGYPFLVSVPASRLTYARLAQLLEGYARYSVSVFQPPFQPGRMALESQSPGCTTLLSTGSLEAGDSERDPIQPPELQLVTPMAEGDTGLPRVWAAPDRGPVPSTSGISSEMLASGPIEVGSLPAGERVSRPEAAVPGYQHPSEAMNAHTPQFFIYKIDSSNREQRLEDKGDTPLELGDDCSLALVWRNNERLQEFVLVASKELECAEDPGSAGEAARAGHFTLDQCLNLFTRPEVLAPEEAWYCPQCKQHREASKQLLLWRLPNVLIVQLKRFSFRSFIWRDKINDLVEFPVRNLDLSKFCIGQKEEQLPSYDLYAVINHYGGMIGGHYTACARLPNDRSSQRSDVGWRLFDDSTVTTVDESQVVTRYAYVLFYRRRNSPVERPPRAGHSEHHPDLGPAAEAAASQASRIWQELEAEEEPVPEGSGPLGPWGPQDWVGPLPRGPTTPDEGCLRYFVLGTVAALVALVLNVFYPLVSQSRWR
In words: USP19 fluorescence polarisation (FP) assay, Ubiquitin-Lys-TAMRA substrate. Format: biochemical. As to conditions: average of at least two duplicate experiments. How it is done: USP19 activity was determined in a fluorescence polarisation (FP) homogeneous assay using the isopeptide Ubiquitin-Lys-TAMRA substrate (either AUB-101, Almac Sciences Scotland Limited, or U-558, Boston Biochem, both of which gave identical results). Full-length USP19 was purchased from Boston Biochem (E-576). Unless otherwise stated, all other reagents were purchased from Sigma. Enzymatic reactions were conducted in black flat bottom polystyrene 384-well plates (Nunc) and 30 μL total volume. USP19 (2.5 nM, 10 μL) was incubated in assay buffer (50 mM HEPES (pH 7.4), 150 mM NaCl, 5 mM DTT, 0.05% BSA (w/v), 0.05% CHAPS) in the presence or absence of inhibitor (10 μL). Inhibitors were stored as 10 mM DMSO stocks in an inert environment (low humidity, dark, low oxygen, rt) using the StoragePod® system (Roylan Developments) and serial dilutions were prepared in buffer just prior to the assay (from 200 μM to 2 μM, 8-18 data point curve). Following incubation at RT for 30 min, the enzymatic reactions were initiated by dispensing the Ub substrate (500 nM, 10 μL). FP was measured every 15 min over a period of 90 min (within the linear range of the assay) using a Synergy 4 plate reader (BioTek) exciting at 530 nm and measuring the amount of parallel and perpendicular light at 575 nm. The FP signal was subsequently normalised to the no compound control. Data were plotted and fitted, and the concentrations resulting in 50% inhibition (IC50) were calculated using the non-linear regression curve fitting model using GraphPad (Prism). IC50 values for the inhibitors of the invention are compiled in Tables 1 and 3 and represent the average of at least two duplicate experiments.
Broadly, the pIC50 is the IC50 on a negative log10 scale, so that one unit is a factor of ten. Regarding `O=C(N1CC[C@@H](Cn2cnc(-c3ccccc3)cc2=O)C2(CCCC2)C1)N1CC[C@@H](NCc2ccncn2)C[C@H]1c1cc(F)ccc1F` [Example 170, 3-(((R)-7-((2S,4R)-2-(2,5-Difluorophenyl)-4-((pyrimidin-4-ylmethyl)amino)piperidine-1-carbonyl)-7-azaspiro[4.5]decan-10-yl)methyl)-6-phenylpyrimidin-4(3H)-one], the pIC50 was above 8.00.

In the case of `CN[C@@H]1CCN(C(=O)N2CC[C@@H](Cn3cnc(-c4ccccc4OC)cc3=O)C3(CCCC3)C2)[C@H](c2ccccc2)C1` [Example 97, 6-(2-Methoxyphenyl)-3-(((R)-7-((2S,4R)-4-(methylamino)-2-phenylpiperidine-1-carbonyl)-7-azaspiro[4.5]decan-10-yl)methyl)pyrimidin-4(3H)-one], the pIC50 was above 8.00.

Consider `O=C(O)CN[C@@H]1CCN(C(=O)N2CC[C@@H](Cn3cnc(-c4ccccc4)cc3=O)C3(CCCC3)C2)[C@H](c2cc(F)ccc2F)C1` [Example 158], for which the pIC50 is above 8.00.

`CC1(C)CN(C(=O)N2CC[C@@H](N)C[C@H]2c2ccccc2)CCC1Cn1cnc(-c2ccccc2)cc1=O` (stereo partly drawn) [Example 19, 3-((1-((2S,4R)-4-Amino-2-phenylpiperidine-1-carbonyl)-3,3-dimethylpiperidin-4-yl)methyl)-6-phenylpyrimidin-4(3H)-one]: the pIC50 is above 8.00.

In the case of `N[C@@H]1CCN(C(=O)N2CC[C@@H](Cn3cnc(-c4ccccc4)cc3=O)C3(CCCC3)C2)[C@H](c2cccc(F)c2)C1` [Example 66, 3-(((R)-7-((2,4R)-4-Amino-2-(3-fluorophenyl)piperidine-1-carbonyl)-7-azaspiro[4.5]decan-10-yl)methyl)-6-phenylpyrimidin-4(3H)-one], the pIC50 was above 8.00.

On to `CCN[C@@H]1CCN(C(=O)N2CC[C@@H](Cn3cnc(-c4ccccc4)cc3=O)C3(CCCC3)C2)[C@H](c2cc(F)ccc2F)C1` [Example 156, 3-(((R)-7-((2S,4R)-2-(2,5-Difluorophenyl)-4-(ethylamino)piperidine-1-carbonyl)-7-azaspiro[4.5]decan-10-yl)methyl)-6-phenylpyrimidin-4(3H)-one], for which the negative logarithm of the IC50 (pIC50) was above 8.00.

As to `O=C(N1CC[C@@H](Cn2ccc(-c3ccccc3)cc2=O)C2(CCCC2)C1)N1CC[C@@H](NC2(CF)COC2)C[C@H]1c1ccccc1` [Example 112, 1-(((R)-7-((2S,4R)-4-((3-(Fluoromethyl)oxetan-3-yl)amino)-2-phenylpiperidine-1-carbonyl)-7-azaspiro[4.5]decan-10-yl)methyl)-4-phenylpyridin-2(1H)-one], the pIC50 was 7.00 to 8.00.

As to `Cc1ccccc1-c1ccn(C[C@@H]2CCN(C(=O)N3CC[C@@H](N)C[C@H]3c3ccccc3)CC23CCCC3)c(=O)c1` [Example 60, 1-(((R)-7-((2S,4R)-4-Amino-2-phenylpiperidine-1-carbonyl)-7-azaspiro[4.5]decan-10-yl)methyl)-4-(o-tolyl)pyridin-2(1H)-one], the pIC50 is above 8.00.

Turning to `CN[C@@H]1CCN(C(=O)N2CC[C@@H](Cn3ccc(-c4ccccc4OC)cc3=O)C3(CCCC3)C2)[C@H](c2ccccc2F)C1` [Example 118, 1-(((R)-7-((2S,4R)-2-(2-Fluorophenyl)-4-(methylamino)piperidine-1-carbonyl)-7-azaspiro[4.5]decan-10-yl)methyl)-4-(2-methoxyphenyl)pyridin-2(1H)-one], the pIC50 is above 8.00.

Regarding `CN[C@@H]1CCN(C(=O)N2CC[C@@H](Cn3cnc4ccc(F)cc4c3=O)C3(CCCC3)C2)[C@H](c2ccccc2)C1` [Example 101, 6-Fluoro-3-(((R)-7-((2S,4R)-4-(methylamino)-2-phenylpiperidine-1-carbonyl)-7-azaspiro[4.5]decan-10-yl)methyl)quinazolin-4(3H)-one], the pIC50 is above 8.00.

In the case of `CN[C@@H]1CCN(C(=O)N2CC[C@@H](Cn3ccc(-c4ccccc4OC)cc3=O)C3(CCCC3)C2)[C@H](c2ccccc2)C1` [Example 53, 4-(2-Methoxyphenyl)-1-(((R)-7-((2S,4R)-4-(methylamino)-2-phenylpiperidine-1-carbonyl)-7-azaspiro[4.5]decan-10-yl)methyl)pyridin-2(1H)-one], the pIC50 was above 8.00.

On to `O=C(N1CC[C@@H](Cn2cnc3ccc(F)cc3c2=O)C2(CCCC2)C1)N1CC[C@@H](NCC(F)F)C[C@H]1c1cc(F)ccc1F` [Example 157, 3-(((R)-7-((2S,4R)-4-((2,2-Difluoroethyl)amino)-2-(2,5-difluorophenyl)piperidine-1-carbonyl)-7-azaspiro[4.5]decan-10-yl)methyl)-6-fluoroquinazolin-4(3H)-one], for which the pIC50 was above 8.00.

Consider `CC(=O)N[C@@H]1CCN(C(=O)N2CC[C@@H](Cn3cnc4ccc(F)cc4c3=O)C3(CCCC3)C2)[C@H](c2cc(F)ccc2F)C1` [Example 172, N-((2S,4R)-2-(2,5-Difluorophenyl)-1-((R)-10-((6-fluoro-4-oxoquinazolin-3(4H)-yl)methyl)-7-azaspiro[4.5]decane-7-carbonyl)piperidin-4-yl)acetamide], for which the pIC50 was above 8.00.

As to `C[C@H](CC(F)(F)F)C(=O)N1CCC(Cn2ccc(-c3ccccc3)cc2=O)C2(CCCC2)C1` (stereo partly drawn) [Example 5, 4-Phenyl-1-((7-((R)-4,4,4-trifluoro-2-methylbutanoyl)-7-azaspiro[4.5]decan-10-yl)methyl)pyridin-2(1H)-one], the pIC50 is 4.70 to 6.00.

In the case of `COc1ccccc1-c1ccn(C[C@@H]2CCN(C(=O)N3CC[C@@H](N)C[C@H]3c3ccccc3)CC23CCCC3)c(=O)c1` [Example 59, 1-(((R)-7-((2S,4R)-4-Amino-2-phenylpiperidine-1-carbonyl)-7-azaspiro[4.5]decan-10-yl)methyl)-4-(2-methoxyphenyl)pyridin-2(1H)-one], the negative-log IC50 (pIC50) is above 8.00.

`O=C(N1CC[C@@H](Cn2ccc(Cl)cc2=O)C2(CCCC2)C1)N1CC[C@@H](NC2CC(F)(F)C2)C[C@H]1c1cc(F)ccc1F` [Example 186, 4-Chloro-1-(((R)-7-((2S,4R)-4-((3,3-difluorocyclobutyl)amino)-2-(2,5-difluorophenyl)piperidine-1-carbonyl)-7-azaspiro[4.5]decan-10-yl)methyl)pyridin-2(1H)-one]: the negative-log IC50 (pIC50) is 7.00 to 8.00.

With `O=C(N1CC[C@@H](Cn2cnc(-c3ccccc3)cc2=O)C2(CCCC2)C1)N1CC[C@@H](NCC(F)F)C[C@H]1c1ccccc1` [Example 71, 3-(((R)-7-((2S,4R)-4-((2,2-Difluoroethyl)amino)-2-phenylpiperidine-1-carbonyl)-7-azaspiro[4.5]decan-10-yl)methyl)-6-phenylpyrimidin-4(3H)-one], the pIC50 is above 8.00.

For the compound `O=C(N1CC[C@@H](Cn2ccc(-c3ccccc3)cc2=O)C2(CCCC2)C1)N1CC[C@@H](NC2CS(=O)(=O)C2)C[C@H]1c1ccccc1` [Example 50, 1-(((R)-7-((2S,4R)-4-((1,1-Dioxidothietan-3-yl)amino)-2-phenylpiperidine-1-carbonyl)-7-azaspiro[4.5]decan-10-yl)methyl)-4-phenylpyridin-2(1H)-one], the pIC50 is 7.00 to 8.00.

With `COC(=O)[C@@H]1CCN(C(=O)N2CC[C@@H](Cn3cnc(-c4ccccc4)cc3=O)C3(CCCC3)C2)[C@H](c2ccccc2)C1` [Example 76], the pIC50 is 4.70 to 6.00.
